Source: patent publication US9511058B2, “Methods for using carboxamide, sulfonamide and amine compounds” (Rigel Pharmaceuticals, Inc., priority 2010, dated 2016)

Molecular target: AMPK
Assay: AMPK activation, enzyme-linked immunosorbent assay
Type: biochemical
[1] = compounds of Table 5 (Table 10)

Row | Structure (SMILES) | EC50 (compounds of Table 1 (Table 6)) | EC50 [1] | also measured
1 | CC(C)(C)OC(=O)N1CCC(NC(=O)c2cc3cc(OC4CCN(Cc5ccc(C#N)cc5)CC4)ccc3o2)CC1 [1-113, tert-butyl 4-(5-(1-(4-cyanobenzyl)piperidin-4-yloxy)benzofuran-2-carboxamido)piperidine-1-carboxylate] | 100 to 500 nM | – | –
2 | CN(C(=O)c1cc2cc(OC3CCN(c4ccc(C(F)(F)F)cc4)CC3)ccc2o1)C1CCN(Cc2ccc(C(F)(F)F)cc2)CC1 [1-119, N-methyl-N-(1-(4-(trifluoromethyl)benzyl)piperidin-4-yl)-5-(1-(4-(trifluoromethyl)phenyl)piperidin-4-yloxy)benzofuran-2-carboxamide] | < 100 nM | – | –
3 | N#Cc1ccc(N2CCC(Oc3ccc(C(=O)NC4CCN(Cc5cccnc5)CC4)nc3)CC2)cc1 [1-6, N-(1-(pyridin-3-ylmethyl)piperidin-4-yl)-5-(1-(4-cyanophenyl)piperidin-4-yloxy)picolinamide] | 100 to 500 nM | – | –
4 | O=C(NC1CCN(Cc2ccccc2)CC1)c1cc2cc(OC3CCN(c4ccc(OC(F)(F)F)cc4)CC3)ccc2o1 [1-80, N-(1-benzylpiperidin-4-yl)-5-(1-(4-(trifluoromethoxy)phenyl)piperidin-4-yloxy)benzofuran-2-carboxamide] | < 100 nM | – | –
5 | O=C(NC1CCN(S(=O)(=O)c2cccnc2)CC1)c1cc2ccc(OC3CCN(c4ccc(OC(F)(F)F)cc4)CC3)cc2o1 [1-108, N-(1-(pyridin-3-ylsulfonyl)piperidin-4-yl)-6-(1-(4-(trifluoromethoxy)phenyl)piperidin-4-yloxy)benzofuran-2-carboxamide] | 100 to 500 nM | – | –
6 | O=C(NC1CCN(S(=O)(=O)c2ccc(F)cc2)CC1)c1ccc2[nH]c3c(c2c1)CN(c1ccc(F)cc1)CC3 [2-35, 2-(4-fluorophenyl)-N-(1-(4-fluorophenylsulfonyl)piperidin-4-yl)-2,3,4,5-tetrahydro-1H-pyrido[4,3-b]indole-8-carboxamide] | – | – | EC50 (compounds of Table 2 (Table 7)): 10000 to 50000 nM
7 | CC(C)(C)OC(=O)N1CC[C@@H](NC(=O)c2cc3cc(OC4CCN(c5ccc(C(F)(F)F)cc5)CC4)ccc3o2)C1 [1-120, (R)-tert-butyl 3-(5-(1-(4-(trifluoromethyl)phenyl)piperidin-4-yloxy)benzofuran-2-carboxamido)pyrrolidine-1-carboxylate] | 1000 to 5000 nM | – | –
8 | N#Cc1ccc(CN2CCC(NC(=O)c3ccc4c(c3)CN(Cc3ccc(C#N)cc3)CC4)CC2)cc1 [3-37, 2-(4-cyanobenzyl)-N-(1-(4-cyanobenzyl)piperidin-4-yl)-1,2,3,4-tetrahydroisoquinoline-7-carboxamide] | – | – | EC50 (compounds of Table 3 (Table 8)): < 100 nM
9 | O=C(NCCCNCc1ccncc1)c1ccc(OC2CCN(c3ccc(C(F)(F)F)cc3)CC2)cn1 [1-50, N-(3-(pyridin-4-ylmethylamino)propyl)-5-(1-(4-(trifluoromethyl)phenyl)piperidin-4-yloxy)picolinamide] | 1000 to 5000 nM | – | –
10 | O=C(NC1CCNCC1)c1ccnc(OC2CCN(c3ccc(C(F)(F)F)cc3)CC2)c1 [1-19, N-(piperidin-4-yl)-2-(1-(4-(trifluoromethyl)phenyl)piperidin-4-yloxy)isonicotinamide] | 1000 to 5000 nM | – | –
11 | COC(=O)c1ccc(CN2CCC(NC(=O)c3ccc(OC4CCN(c5ccc(C#N)cc5)CC4)cn3)CC2)cc1 [1-7, methyl 4-((4-(5-(1-(4-cyanophenyl)piperidin-4-yloxy)picolinamido)piperidin-1-yl)methyl)benzoate] | < 100 nM | – | –
12 | N#Cc1ccc(CN2CCC(NS(=O)(=O)c3ccc(OC4CCN(c5ccc(C(F)(F)F)cc5)CC4)nc3)CC2)cc1 [1-56, N-(1-(4-cyanobenzyl)piperidin-4-yl)-6-(1-(4-(trifluoromethyl)phenyl)piperidin-4-yloxy)pyridine-3-sulfonamide] | 5000 to 10000 nM | – | –
13 | O=C(NC1CCN(Cc2ccncc2)CC1)c1ccc(OC2CCN(c3ccc(C(F)(F)F)cc3)CC2)nc1 [1-10, N-(1-(pyridin-4-ylmethyl)piperidin-4-yl)-6-(1-(4-(trifluoromethyl)phenyl)piperidin-4-yloxy)nicotinamide] | < 100 nM | – | –
14 | Cn1c2c(c3cc(C(=O)NC4CCN(Cc5cccnc5)CC4)ccc31)CN(Cc1ccc(C(F)(F)F)cc1)CC2 [2-18, 5-methyl-N-(1-(pyridin-3-ylmethyl)piperidin-4-yl)-2-(4-(trifluoromethyl)benzyl)-2,3,4,5-tetrahydro-1H-pyrido[4,3-b]indole-8-carboxamide] | – | – | EC50 (compounds of Table 2 (Table 7)): 1000 to 5000 nM
15 | N#Cc1ccc(CN2CCC(NC(=O)c3cncc(OC4CCN(c5ccc(C(F)(F)F)cc5)CC4)c3)CC2)cc1 [1-17, N-(1-(4-cyanobenzyl)piperidin-4-yl)-5-(1-(4-(trifluoromethyl)phenyl)piperidin-4-yloxy)nicotinamide] | < 100 nM | – | –
16 | N#Cc1ccc(CN2CCC(NC(=O)c3ccc4[nH]c5c(c4c3)CN(Cc3ccc(C(F)(F)F)cc3)CC5)CC2)cc1 [2-12, N-(1-(4-cyanobenzyl)piperidin-4-yl)-2-(4-(trifluoromethyl)benzyl)-2,3,4,5-tetrahydro-1H-pyrido [4,3-b]indole-8-carboxamide] | – | – | EC50 (compounds of Table 2 (Table 7)): < 500 nM
17 | CC(C)(C)OC(=O)N1CCC(NC(=O)c2sc3cc(OC4CCN(c5ccc(C(F)(F)F)cc5)CC4)ccc3c2Cl)CC1 [1-147, tert-butyl 4-(3-chloro-6-(1-(4-(trifluoromethyl)phenyl)piperidin-4-yloxy)benzo[b]thiophene-2-carboxamido)piperidine-1-carboxylate] | 1000 to 5000 nM | – | –
18 | O=C(NC1CCN(Cc2ccncc2)CC1)c1ccc2[nH]c3c(c2c1)CN(Cc1ccccc1)CC3 [2-7, 2-benzyl-N-(1-(pyridin-4-ylmethyl)piperidin-4-yl)-2,3,4,5-tetrahydro-1H-pyrido[4,3-b]indole-8-carboxamide] | – | – | EC50 (compounds of Table 2 (Table 7)): 5000 to 10000 nM
19 | Cc1c(C(=O)NC2CCN(C(=O)OC(C)(C)C)CC2)oc2cc(OC3CCN(c4ccc(C(F)(F)F)cc4)CC3)ccc12 [1-61, tert-butyl 4-(3-methyl-6-(1-(4-(trifluoromethyl)phenyl)piperidin-4-yloxy)benzofuran-2-carboxamido)piperidine-1-carboxylate] | 100 to 500 nM | – | –
20 | O=C(NC1CCNCC1)c1cc2ccc(OC3CCN(c4ccc(C(F)(F)F)cc4)CC3)cc2o1 [1-84, N-(piperidin-4-yl)-6-(1-(4-(trifluoromethyl)phenyl)piperidin-4-yloxy)benzofuran-2-carboxamide] | 5000 to 10000 nM | – | –
21 | N#Cc1ccc(NC(=O)N2CCC(NC(=O)c3ccc4[nH]c5c(c4c3)CN(Cc3ccc(C(F)(F)F)cc3)CC5)CC2)cc1 [2-27, N-(1-(4-cyanophenyl-carbamoyl)piperidin-4-yl)-2-(4-(trifluoromethyl)benzyl)-2,3,4,5-tetrahydro-1H-pyrido [4,3-b]indole-8-carboxamide] | – | – | EC50 (compounds of Table 2 (Table 7)): 1000 to 5000 nM
22 | Cc1c(C(=O)NC2CCN(Cc3ccccn3)CC2)oc2cc(OC3CCN(c4ccc(C(F)(F)F)cc4)CC3)ccc12 [1-68, 3-methyl-N-(1-(pyridin-2-ylmethyl)piperidin-4-yl)-6-(1-(4-(trifluoromethyl)phenyl)piperidin-4-yloxy)benzofuran-2-carboxamide] | < 100 nM | – | –
23 | FC(F)(F)c1ccc(N2CCC(Oc3ccc4c(c3)CCC4NC3CCN(Cc4ccncc4)CC3)CC2)cc1 (stereo not shown) [1-158, 1-(pyridin-4-ylmethyl)-N-(5-(1-(4-(trifluoromethyl)phenyl)piperidin-4-yloxy)-2,3-dihydro-1H-inden-1-yl)piperidin-4-amine] | 100 to 500 nM | – | –

Further lines, with some results ahead:

Row | EC50 (compounds of Table 1 (Table 6)) | EC50 [1] | Structure (SMILES) | also measured
24 | – | < 1000 nM | O=C(NC1CCN(Cc2ccccc2)CC1)c1ccc(OC2CCN(Cc3ccc(Cl)c(Cl)c3)CC2)c(Cl)c1 [5-84, N-(1-benzylpiperidin-4-yl)-3-chloro-4-(1-(3,4-dichlorobenzyl)piperidin-4-yloxy)benzamide] | –
25 | – | < 1000 nM | N#Cc1ccc(N2CCC(Oc3cccc(C(=O)NC4CCN(Cc5ccccc5)CC4)c3)CC2)cc1 [5-48, N-(1-benzylpiperidin-4-yl)-3-(1-(4-cyanophenyl)piperidin-4-yloxy)benzamide] | –
26 | – | 1000 to 10000 nM | O=C(O)c1ccc(CN2CCC(NC(=O)c3ccc(OC4CCN(c5ccc(C(F)(F)F)cc5)CC4)c(F)c3)CC2)cc1 [5-35, 4-((4-(3-fluoro-4-(1-(4-(trifluoromethyl)phenyl)piperidin-4-yloxy)benzamido)piperidin-1-yl)methyl)benzoic acid] | –
27 | – | < 1000 nM | N#Cc1ccc(CN2CCC(Oc3ccc(C(=O)NC4CCN(Cc5ccccc5)CC4)cc3F)CC2)cc1 [5-41, N-(1-benzylpiperidin-4-yl)-4-(1-(4-cyanobenzyl)piperidin-4-yloxy)-3-fluorobenzamide] | –
28 | – | 1000 to 10000 nM | O=C(NC1CCN(Cc2ccccc2)CC1)c1ccc(OC2CCN(c3cccs3)CC2)c(Cl)c1 [5-10, N-(1-benzylpiperidin-4-yl)-3-chloro-4-(1-(thiophen-2-yl)piperidin-4-yloxy)benzamide] | –
29 | – | < 1000 nM | O=C(NC1CCN(Cc2ccccc2)CC1)c1ccc(OC2CCN(Cc3ccc(F)cc3)CC2)c(F)c1 [5-61, N-(1-benzylpiperidin-4-yl)-3-fluoro-4-(1-(4-fluorobenzyl)piperidin-4-yloxy)benzamide] | –
30 | – | < 1000 nM | O=C(NC1CCN(Cc2ccccc2)CC1)c1ccc(OC2CCN(c3ccc(C(F)(F)F)cc3)CC2)cc1Cl [5-47, N-(1-benzylpiperidin-4-yl)-2-chloro-4-(1-(4-(trifluoromethyl)phenyl)piperidin-4-yloxy)benzamide] | –
31 | – | 1000 to 10000 nM | O=C(NC1CCN(Cc2ccccc2)CC1)c1ccc(OC2CCN(Cc3cccnc3)CC2)c(F)c1 [5-38, N-(1-benzylpiperidin-4-yl)-3-fluoro-4-(1-(pyridin-3-ylmethyl)piperidin-4-yloxy)benzamide] | –
32 | – | < 1000 nM | CC(C)(C)C(=O)N1CCC(NC(=O)c2ccc(OC3CCN(c4ccc(C(F)(F)F)cc4)CC3)c(F)c2)CC1 [5-30, 3-fluoro-N-(1-pivaloylpiperidin-4-yl)-4-(1-(4-(trifluoromethyl)phenyl)piperidin-4-yloxy)benzamide] | –
33 | – | 1000 to 10000 nM | COc1ccc(CN2CCC(Oc3ccc(C(=O)NCCCNC(=O)OC(C)(C)C)cc3Cl)CC2)cc1 [5-97, tert-butyl 3-(3-chloro-4-(1-(4-methoxybenzyl)piperidin-4-yloxy)benzamido)propylcarbamate] | –
34 | – | < 1000 nM | CC(C)(C)C(=O)N1CCC(Oc2ccc(C(=O)NC3CCN(Cc4ccccc4)CC3)cc2Cl)CC1 [5-91, N-(1-benzylpiperidin-4-yl)-3-chloro-4-(1-pivaloylpiperidin-4-yloxy)benzamide] | –
